Reference: patent US6737383B1, “Herbicidal oxadiazolidines” (priority 1999, dated 2004)

Tests used:
[1] = system: morningglory; test: Test A morningglory; assay type: in vivo, Ipomoea spp.; conditions: 0 to 10 scale where 0 is no effect and 10 is complete control
Procedure, shortened: (§1)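 Visual injury score, 0 (no effect) to 10 (complete control), vs untreated controls at ~11 d in greenhouse. Pre: soil drench on sandy loam. Post: spray to runoff, 1–2 leaf stage.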

[2] = system: velvetleaf; test: Test A velvetleaf; assay type: in vivo, Abutilon theophrasti; conditions: 0 to 10 scale where 0 is no effect and 10 is complete control
Procedure, shortened: as §1

[3] = system: wild poinsettia; test: Test C postemergence wild poinsettia; assay type: in vivo, Euphorbia heterophylla; conditions: 0 to 100 scale, 0 no effect, 100 complete control
Protocol: (§2) Compounds evaluated in this test were formulated in a non-phytotoxic solvent mixture which included a surfactant and applied to plants that were grown for various periods of time before treatment (postemergence application). A mixture of sandy loam soil and greenhouse potting mix in a 60:40 ratio was used for the postemergence test.
(§3) Plantings of these crops and weed species were adjusted to produce plants of appropriate size for the postemergence test. All plant species were grown using normal greenhouse practices. Crop and weed species include arrowleaf sida (Sida rhombifolia), barnyardgrass (Echinochloa crus-galli), cocklebur (Xanthium strumarium), common ragweed (Ambrosia elatior), corn (Zea mays), cotton (Gossypium hirsutum), eastern black nightshade (Solanum ptycanthum), fall panicum (Panicum dichotomiflorum), field bindweed (Convolvulus arvensis), giant foxtail (Setaria faberii), hairy beggarticks (Bidens pilosa), ivyleaf morningglory (Ipomoea hederacea), johnsongrass (Sorghum halepense), ladysthumb smartweed (Polygonum persicaria), lambsquarters (Chenopodium album), large crabgrass (Digitaria sanguinalis), purple nutsedge (Cyperus rotundus), redroot pigweed (Amaranthus retroflexus), soybean (Glycine max), surinam grass (Brachiaria decumbens), velvetleaf (Abutilon theophrasti) and wild poinsettia (Euphorbia heterophylla).
(§4) Treated plants and untreated controls were maintained in a greenhouse for approximately 14, to 21 days, after which all treated plants were compared to untreated controls and visually evaluated. Plant response ratings, summarized in Table C, were based upon a 0 to 100 scale where 0 was no effect and 100 was complete control. A dash response (−) means no test result.

[4] = system: corn; test: Test C postemergence corn; assay type: in vivo, Zea mays; conditions: 0 to 100 scale, 0 no effect, 100 complete control
Protocol: as §2, §3, §4

[5] = system: johnsongrass; test: Test C postemergence johnsongrass; assay type: in vivo, Sorghum halepense; conditions: 0 to 100 scale, 0 no effect, 100 complete control
Procedure, shortened: (§5)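 Postemergence spray; formulation = non-phytotoxic solvent + surfactant; soil 60:40 sandy loam:greenhouse potting mix; greenhouse, ~14–21 d; visual rating vs untreated, 0–100 (100 = complete control).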

[6] = system: field bindweed; test: Test C postemergence field bindweed; assay type: in vivo, Convolvulus arvensis; conditions: 0 to 100 scale, 0 no effect, 100 complete control
Procedure, shortened: as §5

[7] = system: arrowleaf sida; test: Test C postemergence arrowleaf sida; assay type: in vivo, Sida rhombifolia; conditions: 0 to 100 scale, 0 no effect, 100 complete control
Protocol: as §2, §3, §4

[8] = system: purple nutsedge; test: Test C postemergence purple nutsedge; assay type: in vivo, Cyperus rotundus; conditions: 0 to 100 scale, 0 no effect, 100 complete control
Procedure, shortened: as §5

[9] = system: hairy beggarticks; test: Test C postemergence hairy beggarticks; assay type: in vivo, Bidens pilosa; conditions: 0 to 100 scale, 0 no effect, 100 complete control
Procedure, shortened: as §5

[10] = system: barnyardgrass; test: Test C postemergence barnyardgrass; assay type: in vivo, Echinochloa crus-galli; conditions: 0 to 100 scale, 0 no effect, 100 complete control
Procedure, shortened: as §5

[11] = system: surinam grass; test: Test C postemergence surinam grass; assay type: in vivo, Brachiaria decumbens; conditions: 0 to 100 scale, 0 no effect, 100 complete control
Protocol: as §2, §3, §4

[12] = system: large crabgrass; test: Test C postemergence large crabgrass; assay type: in vivo, Digitaria sanguinalis; conditions: 0 to 100 scale, 0 no effect, 100 complete control
Protocol: as §2, §3, §4

SMILES: CCN(CC)C(=O)n1oc(=O)n(-c2ccc(OC)cc2)c1=O [Compound 1]
- Plant response rating, Morningglory ([1]; Postemergence, Rate 1000 g/ha): 0
- Plant response rating, Morningglory ([1]; Pre-emergence, Rate 2000 g/ha): 0
- Plant response rating, Velvetleaf ([2]; Postemergence, Rate 1000 g/ha): 0
- Plant response rating, Velvetleaf ([2]; Pre-emergence, Rate 2000 g/ha): 0

SMILES: Cc1ccccc1-n1c(=O)on(C(=O)N(C2=CCOCC2)C(C)C)c1=O [Compound 10]
- Plant response rating, Morningglory ([1]; Postemergence, Rate 1000 g/ha): 0
- Plant response rating, Morningglory ([1]; Pre-emergence, Rate 2000 g/ha): 1
- Plant response rating, Velvetleaf ([2]; Postemergence, Rate 1000 g/ha): 4
- Plant response rating, Velvetleaf ([2]; Pre-emergence, Rate 2000 g/ha): 2

SMILES: CC(C)Oc1cc(-n2c(=O)on(C(=O)N(c3ccc(F)cc3)C(C)C)c2=O)c(Cl)cc1Cl [Compound 43]
- Plant response rating, Morningglory ([1]; Postemergence, Rate 1000 g/ha): 0
- Plant response rating, Morningglory ([1]; Pre-emergence, Rate 2000 g/ha): 0
- Plant response rating, Velvetleaf ([2]; Postemergence, Rate 1000 g/ha): 0
- Plant response rating, Velvetleaf ([2]; Pre-emergence, Rate 2000 g/ha): 0

SMILES: CC(C)N(C(=O)n1oc(=O)n(Cc2cccs2)c1=O)c1ccc(F)cc1 [Compound 80]
- Plant response rating Wild poinsettia ([3]; Rate 140 g/ha): 0
- Plant response rating Wild poinsettia ([3]; Rate 280 g/ha): 0
- Plant response rating Wild poinsettia ([3]; Rate 560 g/ha): 5
- Plant response rating Wild poinsettia ([3]; Rate 1120 g/ha): 5
- Plant response rating, Corn ([4]; Rate 140 g/ha): 0
- Plant response rating, Corn ([4]; Rate 280 g/ha): 0
- Plant response rating, Corn ([4]; Rate 560 g/ha): 0
- Plant response rating, Corn ([4]; Rate 1120 g/ha): 0
- Plant response rating, Johnsongrass ([5]; Rate 140 g/ha): 0
- Plant response rating, Johnsongrass ([5]; Rate 280 g/ha): 0
- Plant response rating, Johnsongrass ([5]; Rate 560 g/ha): 0
- Plant response rating, Johnsongrass ([5]; Rate 1120 g/ha): 0
- Plant response rating Field bindweed ([6]; Rate 140 g/ha): 0
- Plant response rating Field bindweed ([6]; Rate 280 g/ha): 0
- Plant response rating Field bindweed ([6]; Rate 560 g/ha): 0
- Plant response rating Field bindweed ([6]; Rate 1120 g/ha): 0
- Plant response rating Arrowleaf sida ([7]; Rate 140 g/ha): 0
- Plant response rating Arrowleaf sida ([7]; Rate 280 g/ha): 5
- Plant response rating Arrowleaf sida ([7]; Rate 1120 g/ha): 30
- Plant response rating, Purple nutsedge ([8]; Rate 140 g/ha): 0
- Plant response rating, Purple nutsedge ([8]; Rate 280 g/ha): 0
- Plant response rating, Purple nutsedge ([8]; Rate 560 g/ha): 0
- Plant response rating, Purple nutsedge ([8]; Rate 1120 g/ha): 0
- Plant response rating H. beggarticks ([9]; Rate 140 g/ha): 0
- Plant response rating H. beggarticks ([9]; Rate 560 g/ha): 10
- Plant response rating H. beggarticks ([9]; Rate 1120 g/ha): 10
- Plant response rating, Barnyardgrass ([10]; Rate 140 g/ha): 0
- Plant response rating, Barnyardgrass ([10]; Rate 280 g/ha): 10
- Plant response rating, Barnyardgrass ([10]; Rate 560 g/ha): 20
- Plant response rating, Barnyardgrass ([10]; Rate 1120 g/ha): 20
- Plant response rating, Surinam grass ([11]; Rate 140 g/ha): 0
- Plant response rating, Surinam grass ([11]; Rate 280 g/ha): 0
- Plant response rating, Surinam grass ([11]; Rate 560 g/ha): 0
- Plant response rating, Surinam grass ([11]; Rate 1120 g/ha): 10
- Plant response rating, Large crabgrass ([12]; Rate 140 g/ha): 0
- Plant response rating, Large crabgrass ([12]; Rate 280 g/ha): 0
- Plant response rating, Large crabgrass ([12]; Rate 560 g/ha): 10
- Plant response rating, Large crabgrass ([12]; Rate 1120 g/ha): 10
